The source of these data is patent US20030134859A1 (SANKYO COMPANY, LIMITED, priority 2000, published 2003).

In one assay the test system is ABCA1 mRNA. The assay can be described thus: Quantitative analysis of ABCA1 mRNA (TaqMan PCR) in RAW264.7 cells. It is filed as cell-based, mouse. As to conditions: 100 nM test compound, 24 hr, normalised to β-actin, DMSO = 100. On the procedure: The mouse monocyte/macrophage cell line, RAW264.7 (ATCC TIB71) was purchased from Dainippon Pharmaceutical Co., Ltd. As the medium, the Dulbecco's modified Eagle's medium (DMEM medium; GIBCO, Cat. No. 11995-040) containing bovine fetal serum (the final concentration: 10% (v/v), MOREGATE, lot No. 474030), penicillin G (the final concentration: 50 units/mL, GIBCO) and streptomycin (the final concentration: 20 μg/mL, GIBCO) was used.
The culture of RAW264.7 cells was carried out in a CO2 incubator (37° C., 95% R.H., 5% of CO2).
A 2 ml volume of RAW264.7 cells suspension (1×10^6 cells/mL) was plated in each well of a 6-well plate (2×10^6 cells/well) and the cells were incubated for 2 hr in a CO2 incubator. The test compounds dissolved in DMSO were diluted with DMEM medium by 20 times, and were added to the wells at a volume of 4 μL/well (final concentration of the test compound: 100 nM). As the control, the DMSO solution was diluted with the DMEM medium by 20 times, and was added to the wells at the volume of 4 μL/well. After the cells were cultured in a CO2 incubator for 24 hr, the medium was removed and the total RNA was purified by using an RNeasy Mini Kit (Qiagen), according to the protocol attached. The concentration of the RNA in the samples obtained was calculated from absorbance at 260 nm (A260=1=40 μg/ml). Six (6) μg of total RNA were diluted with RNAase-free water so as to be 22.6 μL, which was heated at 65° C. for 10 min, and then was cooled on ice. The RNA in the solution was used as the template, and the cDNA was synthesized by using a First-strand cDNA Synthesis Kit (Amersham Pharmacia Biotech). In this reaction, a solution was prepared having the following composition and was reacted at 37° C. for 1 hr.
After the reaction, 3 μL of soution were collected from each of the reaction mixtures of the test compound-treated cell samples and that of the control cell samples. The mixed solution was used as the standard solution. The standard solution and each reaction solution were purified with a Chroma Spin-100+DEPC-H2O Column according to the protocol attached, and they were used as the template for TaqMan PCR (Template). In order to draw the calibration curve, the standard solution was diluted by every 5 times for 5 steps and each solution was used for TaqMan PCR. TaqMan PCR was carried out in ABCA1 and β-actin. As Primers for use in the TaqMan PCR, 4 oligonucleotides (abca1 forward (S3), abca1 reverse (AS3), β-actin forward (S4) and β-actin reverse (AS4)) were designed which are shown in sequences No. 5 to 8 in the sequence table described later. The synthesis and purification of these 4 oligomers was ordered from Amersham Pharmacia Biotech Co.
As FAM-TAMRA labelled TaqMan Probe, 2 kinds of oligonucleotides (abca1 (p1) and β-actin (p2)) were designed and were ordered from Applied Biosystems Co. to synthesize and purify.
The following reaction mixture of ABCA1 or β-actin was divided into 2 wells of a MicroAmp Optical 96-well Reaction Plate (Applied Biosystem Co.). TaqMan Universal PCR Master Mix was purchased from Applied Biosystem Co.
The plate was covered with a MicroAmp Optical Cap (Applied Biosystems Co.), and TaqMan PCR was carried out by using an ABI PRISM 7,700 Sequence Detection System (Applied Biosystem Co.) under the following conditions:
An analysis was made according to the procedures described in the manual of Sequence Detection Software (Applied Biosystem Co.) and the increased rate of ABCA1 mRNA due to the test compound was calculated based on the following equation.
A: Amount of the ABCA1 mRNA in the presence of the test compound
B: Amount of the β-actin mRNA in the presence of the test compound
C: Amount of the ABCA1 mRNA in the presence of DMSO
D: Amount of the β-actin mRNA in the presence of DMSO
Increase Rate (%) of ABCA1 mRNA=(A/B)/(C/D)×100

In another assay the test system is KK mice. The assay can be described thus: Plasma glucose lowering effects in hyperglycemic KK mice. The format is in vivo, mouse. As to conditions: male KK mice, 0.3 weight % in food for 1 week. On the procedure:
Unless otherwise described, mice were bred individually, and food and water were taken ad libitum in the following experiments. For this, F2 food powder (Funahashi Farm) was used. Plasma glucose level in the blood collected from the tail vein of a mouse with a heparin-coated glass tube was determined with the Glucoloader (A&T Corp.).
Male KK mice (purchased from Clea Japan, Inc) were purchased at 6 weeks old and were bred until 19 weeks old through an acclimatisation period and test period. The plasma glucose level of each mouse was determined and the occurrence of hyperglycemia in the mice was confrrmed. The animals with a plasma glucose level of 350 mg/dl and higher were screened and the animals for use in the experiment were selected. The selected mice were divided into a control group and a test compound treated group (n=6/group) matched for body weights and plasma glucose levels.
In the control group, conventional food powder was given-to each mouse, while in the test compound-treated group, the food comprising the food powder (F2) mixed with the test compound (final concentration: 0.3 weight %) was given to each mouse. The mice in both groups were bred for 1 week.
One week after the treatment, the blood glucose level was determined.

Another assay relates to lenses. Put plainly: Cataract assessment: opacity of cultured lenses exposed to hydrogen peroxide. Set-up: species or system rat. The settings on record: 100 nM test compound with 5 mM hydrogen peroxide; 24 hr; clear: 0, slightly opaque: 1, moderately opaque: 2. On the procedure: The lenses were isolated from Sprague-Dawley rats (male, purchased from SLC Japan), and the lenses were pre-cultured in a medium (Medium-199: GIBCO BRL) for 3 hr and the lenses maintaining transparency were selected and used in the experiment. The crystalline lenses were cultured for 24 hr in the following 3 groups; 1) in Medium-199 (3 mL), 2) in Medium-199 (3 mL) containing hydrogen peroxide (final concentration: 5 mM) and 3) in Medium-199 (3 mL) containing the test compound (final concentration: 100 nM), DMSO (final concentration: 0.1% v/v) and hydrogen peroxide (final concentration: 5 mM). After finalising culturing, the opacity of the lens was scored based on the following criteria: clear: 0, slightly opaque: 1, moderately opaque: 2. Thus the improving effect of the test compound on cataracts was assessed.

The structures appear in SMILES notation.

Consider `CCN(C)c1ccc(-c2ccc(NC(=O)c3cc([N+](=O)[O-])ccc3Cl)cc2)cc1` [Example 218, N-[4-[4-(N-Ethyl-N-methylamino)phenyl]phenyl]-(2-chloro-5-nitrophenyl)carboxamide], for which the “Rate of Increase (%) of ABCA1 mRNA” value in the assay on ABCA1 mRNA is reported as 190.0%.

As to `O=C(Nc1ccc(OC(F)(F)F)cc1)c1cc([N+](=O)[O-])ccc1Cl` [Example 18, N-(4-Trifluoromethyloxyphenyl)-(2-chloro-5-nitrophenyl)carboxamide], in the assay on KK mice (n=6/group), the “plasma glucose on Day 7” value stood at 315 ± 14. For the same molecule, in the assay with KK mice (plasma glucose on Day 7), the “% of inhibition (vs. control)” value is listed as 55%.

In the case of `Cc1c(C)c2c(c(C)c1O)C(=O)CC(C)(COc1ccc(NC(=O)c3cc([N+](=O)[O-])ccc3Cl)cc1)O2` (centres unmarked) [Example 92, N-[4-(6-Hydroxy-2,5,7,8-tetramethyl-4-oxochroman-2-ylmethoxy)phenyl]-(2-chloro-5-nitrophenyl)carboxamide], the “opacity of the lens (average score)” value in the assay on lenses came out at 1.0.

With `CCN(CC)c1ccc(-c2ccc(NC(=O)c3cc([N+](=O)[O-])ccc3Cl)cc2)cc1` [Example 217, N-[4-[4-(N,N-Diethylamino)phenyl]phenyl]-(2-chloro-5-nitrophenyl)carboxamide], the “Rate of Increase (%) of ABCA1 mRNA” value in the assay on ABCA1 mRNA was found to be 187.0%.
